Measurements published in US12448624B2, “Modified nucleic acid having improved treatment efficacy, and anticancer pharmaceutical composition containing same” (INTEROLIGO CORPORATION, priority 2018, dated 2025).
Values belong to the compound of their own block, whether it stands above or below them. {Gem} = gemcitabine nucleotide residue

Columns and labels:
[1] = In vitro stability: dFdC and dFdU in plasma by LC-MS/MS; assay type: in vitro ADME; conditions: rat plasma
Protocol: From the chromatogram obtained by the established LC-MS/MS assay method, peak area ratios of dFdC, dFdU and dFdCTP to a peak area of the internal standard substance were estimated, followed by calculating a concentration in the mouse plasma and a concentration in tissues from a previously created calibration curve.
1 mL of mouse blood was collected and placed in a 1.5 mL Eppendorf tube containing 10 μL of 10 mg/mL (in DW) tetrahydrouridine (THU). After centrifugation under conditions of 14,000 rpm and 4° C. for 2 minutes using a centrifuge, only plasma was taken and transferred to another vial and stored at −80° C. After transferring 50 μL of plasma to a 1.5 mL amber Eppendorf tube, 150 μL of an internal standard substance (meltform 1.29 μg/mL in ACN) was added and vortexed for 10 minutes. Centrifugation was conducted using a centrifuge under conditions of 14,000 rpm and 4° C. for 20 minutes. In the centrifuged tube, 150 μL of sample was transferred to another 1.5 mL amber Eppendorf tube. An organic solvent was dried using a GeneVac EZ-2 automated evaporation system (GeneVac Ltd., Ipswich, UK). (GeneVac HPLC mode, max temperature 35° C., 1 hr). The organic solvent was reconstituted by adding 125 μL DW to a 1.5 mL dried amber Eppendorf tube. After vortexing for 5 minutes, centrifugation was conducted using a centrifuge under conditions of 14,000 rpm and 4° C. for 5 minutes. The supernatant of the centrifuged solution was added in an amount of 100 μL to each vial for LC-MS/MS using a PTFE (hydrophilic) 0.2 μm syringe filter (Toyo Toshi, Japan). Specifically, 5 μL of the supernatant was injected into each LC-MS/MS.
Chromatography was performed using an Agilent 1200 series separation module (Agilent Technologies, Waldbronn, Germany). […] An injection volume was 5 μL, a mobile phase was a gradient eluent system [A: 100% ACN, B: 0.1% formic acid in DW], and a total running time was 20 minutes. A calibration range was set to be 20 to 5,000 ng/mL.
Each sample was treated according to the above 2-1-1 and 2-1-2, and a ratio of dFdC/dFdU in rat plasma was measured in regard to the compound types of (Gem)x-[TGG]m[TTG][TGG]n.

[2] = test system: MD-MBA 231 (breast cancer); assay: Cell proliferation inhibition (MTT), MD-MB231; assay type: cell-based; conditions: MTT assay, 3 days
Protocol: (§1) 2.5 to 5.0×10^5 cells/well, which is the cell number defined by cell test to determine the appropriate cell concentration in the pancreatic cancer cell line B x PC3 cell (ATCC, IMDM+10% PBS), were seeded in a 96 well plate and incubated for one day. […] The treated BxPC3 cells were incubated in a 5% CO2 incubator for 3 days, treated with 20 μL of reagent solution for MTT assay (Cell Proliferation KitII, Roche), and then incubated hourly (10 minutes, 30 minutes, 60 minutes), followed by measuring absorbance at 490 nm by a reader through ELISA (See FIGS. 28 and 29).
(§2) Cell proliferation inhibitory efficacy against other cell lines MD-MBA 231 (breast cancer), Uuh-7 (liver cancer), HT29 (colon cancer) and Mv4-11 (AML) was also verified in the same manner as described above.

[3] = test system: BxPC3 (pancreatic cancer); assay: Cell proliferation inhibition (MTT), BxPC3; assay type: cell-based; conditions: MTT assay, 3 days
Protocol: as §1, §2

[4] = test system: BxPC3, PANC-1, Miapaca-2, and Capan-1; assay: Cell survival (WST-1) of pancreatic cancer cell lines; assay type: cell-based; conditions: WST-1, 48 hours, 100 nM to 100 μM, all four pancreatic cancer cell lines
Protocol: BxPC3, PANC-1, Miapaca-2, and Capan-1 were cultured as pancreatic cancer cell lines, respectively. When the cells were stable after several subcultures, 1×10^3 cells were seeded in 96 well plates to verify drug effects. On the next day, IO101, IO100, IO100-Con, IO101-Con and Gem at the highest concentration of 100 μM were diluted by 1/10 per each well, and prepared at a concentration of 4 points up to 100 nM. Then, the cells seeding in the 96 well plates were treated using the above prepared variants. After 48 hours, 10 μl of WST-1 solution was added to the wells and incubated in a 37° C. incubator for 1 hour. Subsequently, each sample was measured at 440 nm in a micro plate reader (VERSA Max). After calculation of the measured values, a cell survival rate graph for each treatment concentration was drawn up.

in vivo = conditions: rat, iv
Protocol: Sprague-Dawley male rats were subjected to induced anesthesia with isoflurane, which is an inhalation anesthetic, then a polyethylene (PE) tube (Clay Adams, Becton Dickinson, NJ, USA) was inserted into a carotid artery (for blood collection) and sutured with a suture, followed by fixing an end of the suture behind the neck. During surgery, anesthesia was maintained using ether and about 0.5 mL of physiological saline containing heparin (20 units/mL) was injected to prevent blood from clotting in a cannula. After the surgery is finished, the rats were placed in metabolic cages and allowed to recover completely from the anesthetic condition (4 to 5 hours), respectively. […] 1 and 2 ml/kg of drugs were administered intravenously. […] 5. 15. 30, 45, 60, 120, 360 and 720 minutes after the administration, 0.3 mL of blood was each collected through a […]. […] Then, the blood in the Eppendorf tube was immediately centrifuged, followed by storing the plasma.
All analytical procedures were implemented under conditions of shielding the tube. That is, all procedures were performed under quantification condition: SRM (selected reaction monitoring) mode (see Table 5 above), fixed phase condition: Hypersil gold C18, 1.9 μm, 100×2.1 mm^2 (Thermo Scientific, Matriks, Oslo, Norway), and mobile phase condition: distilled water (A) containing 0.1% formic acid and acetonitrile (B) (see Table 6 above).
Metformin as an internal standard substance (IS) was dissolved in acetonitrile to prepare another working solution of 645 ng/mL.
150 μL of the internal standard, that is, metformin was added to 50 μL of plasma (645 ng/mL in acetonitrile) and vortexed for 10 minutes, followed by performing centrifugation at 15,000 rpm and […] for 20 minutes. Thereafter, 150 μL of the supernatant was taken and transferred to another Eppendorf tube, and then the organic solvent was dried under a nitrogen stream. Then, 125 μL of tertiary distilled water was added to the dried Eppendorf tube, allowed to be redissolved. Then, the solution was vortexed for 5 minutes, centrifuged at 15,000 rpm and […] for 5 minutes. Thereafter, 100 μL of the supernatant was transferred to the vial for LC-MS/MS, 5 μL of the supernatant was injected and analyzed by LC-MS/MS.
Values of an area under the plasma concentration-time curve (AUCt) were calculated using a log-linear trapezoidal equation from the plasma concentration-time curves after the administration of drug to the final quantification time (specifically, the linear-trapezoidal equation is used in a section where the plasma concentration is increased, while in another section where plasma concentration is decreased, the trapezoidal equation is used by log transforming the concentration value). After oral administration, the highest plasma concentration (Cmax) and the time to reach the highest plasma concentration (Tmax) were determined from the plasma concentration-time curve. Values of the area (AUCinf) under the plasma concentration till infinite time-time curve were determined using the following equation. A terminal elimination rate constant (γZ) and half-life (t1/2) were determined from a slope of elimination of the plasma concentration. AUinf=AUCt+Ct/γZ(Ct: final quantification concentration, γZ: terminal elimination rate constant)

[5] = mouse, in vivo
Protocol: Male […]/severe combined immunodeficiency mice, NOD/Shi-scid, IL-2RγKO mice (NOG mice®) (Central Lab Animal Inc., Saeronbio Inc., Seoul) and female nu/nu athymic mice (Orientbio) were maintained in 12 hours light/12 hours dark cycle under pathogen-free conditions. At the time of surgery, 10 new pancreatic tumor specimens stored in the patient's primary tumor (Institutional Examination Committee No. 4-2017-0594) was placed on ice-cooled RPMI medium, PDX SOP of PDTX Cleanbench Department Laboratory Animal Resources (Yonsei Biomedical Research Institute, Seoul) was washed with cold PBS, and non-necrotic fragments were cut into small pieces (2×2×2 mm) to remove blood or lipid portions. […]
After skin incision in PDX mice, the control (No treatment), Gem-IP (; sol-gel type), IO101-IP (; sol-gel type), IO101/AC disk (2.0 mg/3.0%), IO101-Con/AC (2.0 mg/3.0%) and Gem/atelocollagen disk (0.12 mg/3.0%), respectively, were implanted locally by subcutaneous anesthetic dissection between skin and tumor. A tumor size was measured three times per week by caliper measurement (Mitutoyo, Absolute AOS Digmatic, Kawasaki, Japan), and a volume was calculated as described above. Tumor growth in drug-treated animals was expressed as a tumor growth rate (tumor volume/initial tumor volume) compared to vehicle-treated mice. […]

[6] = test system: patient-derived pancreatic cancer cells; assay: PDX pancreatic cancer mouse model, TUNEL analysis; assay type: in vivo; conditions: 1 month after implantation
[7] = Stability of atelocollagen/collagen disk formulations in rat plasma; assay type: in vitro ADME; conditions: 37° C.
Protocol: Sample treatment, calibration curve creation, and LC-MS/MS analysis conditions are the same as described above.
Sample treatment was conducted as follows. […] Thereafter, the supernatant was taken and then centrifuged again under the same conditions as above. Then, 5 μL of the concentrate was taken and diluted by 10-fold using the same rat plasma in order to measure a concentration in plasma (“plasma concentration”). […] The above sample treatment was conducted in the same manner as the calibration curve creation, followed by performing sample analysis under the same LC-MS/MS conditions.
In order to evaluate the stability of the IO101L/atelocollagen disk formulation in rat plasma, experiments were conducted with 5 groups (Groups 1-5) (see Table 12 below). Normal collagen (SK Co.) was used for comparison with atelocollagen.

dFdC/dFdU ratio [1]: 13.67
Compound: (Gem)2-[TGG]6[TTG][TGG]5 [compound 15]

dFdC/dFdU ratio [1]: 11.59
Compound: (Gem)2-[TGG]5[TTG][TGG]6 [compound 14]

dFdC/dFdU ratio [1]: 2.01
Compound: (Gem)2-[TGG]1[TTG][TGG]2 [compound 2]

Compound: (Gem)2-[TGG]4[TTG][TGG]5 (DNA TGGTGGTGGTGGTTGTGGTGGTGGTGGTGG; DNA, 5' {Gem}-{Gem}, backbone not given here) [compound 11, gemcitabine-containing oligonucleotide variant]
IC50 [2]: 15 nM | IC50 [3]: 8.5 nM | pancreatic cancer cell growth inhibition (cell survival rate) [4]: pancreatic cancer cell growth was effectively inhibited | dFdU Tmax (in vivo): 360 min | dFdC/dFdU ratio [1]: 14.10

dFdC/dFdU ratio [1]: 13.59
Compound: (Gem)2-[TGG]6[TTG][TGG]6 [compound 16]

dFdC/dFdU ratio [1]: 2.79
Compound: (Gem)2-[TGG]2[TTG][TGG]3 [compound 5]

dFdC/dFdU ratio [1]: 13.63
Compound: (Gem)2-[TGG]5[TTG][TGG]4 [compound 12]

dFdC/dFdU ratio [1]: 2.61
Compound: (Gem)2-[TGG]2[TTG][TGG]2 [compound 4]

Compound: (Gem)2-[TGG]2[TTG][TGG]1 [compound 3]
dFdC/dFdU ratio [1]: 2.20

Compound: (Gem)2-[TGG]4[TTG][TGG]4 (DNA TGGTGGTGGTGGTTGTGGTGGTGGTGG; two 5' gemcitabine residues, chemistry not fully specified) [compound 10, gemcitabine-containing oligonucleotide variant]
IC50 [2]: 18 nM | IC50 [3]: 8.9 nM | pancreatic cancer cell growth inhibition (cell survival rate) [4]: effectively inhibits pancreatic cancer cell growth in proportion to a drug concentration | dFdC/dFdU ratio [1]: 12.00

dFdC/dFdU ratio [1]: 3.29
Compound: (Gem)2-[TGG]3[TTG][TGG]3 [compound 7]

dFdC/dFdU ratio [1]: 11.85
Compound: (Gem)2-[TGG]5[TTG][TGG]5 [compound 13]

Compound: Nc1ccn([C@@H]2O[C@H](CO)[C@@H](O)C2(F)F)c(=O)n1 [Gemcitabine, 2,2′-difluorodeoxycytidine]
PLT [5]: 684.1 ± 246.3 X1000/μl | apoptosis (TUNEL analysis) in tumor [6]: an apoptosis process was confirmed | AUC(0-inf) (in vivo; male, Sprague-Dawley, 8 mg/kg): 24500 ng·h/mL | AUC(0-t) (in vivo; male, Sprague-Dawley, 8 mg/kg): 23200 ng·h/mL | Cmax (in vivo; male, Sprague-Dawley, 8 mg/kg): 13300 ± 5640 ng/mL | MRT (in vivo; male, Sprague-Dawley, 8 mg/kg): 3.48 h | Tmax (in vivo; male, Sprague-Dawley, 8 mg/kg): 1 min | Vd (in vivo; male, Sprague-Dawley, 8 mg/kg): 1.15 ± 0.223 L/kg | clearance (in vivo; male, Sprague-Dawley, 8 mg/kg): 5.59 ± 0.86 mL/min/kg | dFdU AUCt (in vivo; male, Sprague-Dawley, 8 mg/kg): 265 ± 57.1 µg·min/mL | dFdU Cmax (in vivo; male, Sprague-Dawley, 8 mg/kg): 477 ± 87.9 ng/mL | dFdU Tmax (in vivo; male, Sprague-Dawley, 8 mg/kg): 240 (120-360) min | half-life (in vivo; male, Sprague-Dawley, 8 mg/kg): 2.95 ± 0.475 h | concentration at 30 min (in vivo; male, Sprague-Dawley, Gemcitabine blood concentration, 30 minutes): 5600 ng/mL | concentration at 45 min (in vivo; male, Sprague-Dawley, Gemcitabine blood concentration, 45 minutes): 3410 ng/mL | concentration at 60 min (in vivo; male, Sprague-Dawley, Gemcitabine blood concentration, 60 minutes): 3550 ng/mL | concentration at 120 min (in vivo; male, Sprague-Dawley, Gemcitabine blood concentration, 120 minutes): 2800 ng/mL | dFdU blood concentration, 1 minute (in vivo): BLLoQ | dFdU blood concentration, 5 minutes (in vivo): BLLoQ | dFdC Blood concentration ([7]; 2 hours incubation): 218 µg/mL | dFdC Blood concentration, supernatant ([7]; supernatant (Ultracell-3K), 2 hours): 232 µg/mL

dFdC/dFdU ratio [1]: 3.80
Compound: (Gem)2-[TGG]3[TTG][TGG]4 [compound 8]

dFdC/dFdU ratio [1]: 2.84
Compound: (Gem)2-[TGG]3[TTG][TGG]2 [compound 6]

dFdC/dFdU ratio [1]: 6.04
Compound: (Gem)2-[TGG]4[TTG][TGG]3 [compound 9]

dFdC/dFdU ratio [1]: 1.76
Compound: (Gem)2-[TGG]1[TTG][TGG]1 [compound 1]
